Assay results reported in patent US4684664A, “Derivatives of β-(4-isocyano-1,2,3,4-diepoxycyclopentyl) acrylic acid” (Kureha Kagaku Kogyo Kabushiki Kaisha, priority 1984, dated 1987).
In brackets after ≈: the same amount, converted by molar mass.

Key:
Format in all cases: cell-based
[1] = system: Staphylococcus aureus MS 353; assay: Antibacterial activity, agar-dilution MIC, organism No. 3; settings: Staphylococcus aureus, MS353; Organism No. 3, bouillon-agar; read-out: Minimum Inhibitory Concentration
Summary of the method: (§1)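 Testing uses agar dilution in bouillon agar. MIC = lowest inhibiting concentration, μg/ml medium.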

[2] = system: Salmonella enteritidis G 14; assay: Antibacterial activity, agar-dilution MIC, organism No. 12; settings: Salmonella enterica, ENTERITIDIS; Organism No. 12, bouillon-agar; read-out: Minimum Inhibitory Concentration
Summary of the method: as §1

[3] = system: Micrococcus luteus ATCC 9341; assay: Antibacterial activity, agar-dilution MIC, organism No. 25; settings: Micrococcus luteus, ATCC9341; Organism No. 25, bouillon-agar; read-out: Minimum Inhibitory Concentration
Summary of the method: as §1

[4] = system: Staphylococcus aureus FDA 209PJc-1; assay: Antibacterial activity, agar-dilution MIC, organism No. 1; settings: Staphylococcus aureus, FDA209PJC1; Organism No. 1, bouillon-agar; read-out: Minimum Inhibitory Concentration
Summary of the method: as §1

[5] = system: Pseudomonas aeruginosa NCTC 10490; assay: Antibacterial activity, agar-dilution MIC, organism No. 16; settings: Pseudomonas aeruginosa, NCTC10490; Organism No. 16, bouillon-agar; read-out: Minimum Inhibitory Concentration
Summary of the method: as §1

Proteus vulgaris OX-19 = assay: Antibacterial activity, agar-dilution MIC, organism No. 20; settings: Proteus vulgaris, OX19; Organism No. 20, bouillon-agar; read-out: Minimum Inhibitory Concentration
Summary of the method: as §1

[6] = system: Proteus rettgeri IFO 3850; assay: Antibacterial activity, agar-dilution MIC, organism No. 22; settings: Providencia rettgeri, IFO3850; Organism No. 22, bouillon-agar; read-out: Minimum Inhibitory Concentration
Summary of the method: as §1

[7] = system: Proteus morganii IFO 3848; assay: Antibacterial activity, agar-dilution MIC, organism No. 18; settings: Morganella morganii, IFO3848; Organism No. 18, bouillon-agar; read-out: Minimum Inhibitory Concentration
Summary of the method: as §1

Salmonella typhi 901 = assay: Antibacterial activity, agar-dilution MIC, organism No. 9; settings: Salmonella enterica, TYPHI, read-out: Minimum Inhibitory Concentration
Summary of the method: as §1

[8] = system: Bacillus subtilis ATCC 6633; assay: Antibacterial activity, agar-dilution MIC, organism No. 14; settings: Bacillus subtilis, ATCC6633; Organism No. 14, bouillon-agar; read-out: Minimum Inhibitory Concentration
Summary of the method: as §1

[9] = system: Candida albicans IAM 4905; assay: Antifungal activity, agar-dilution MIC, organism No. 29; settings: Candida albicans, IAM4905; Organism No. 29, bouillon-agar; read-out: Minimum Inhibitory Concentration
Summary of the method: as §1

[10] = system: Salmonella shottmuelleri 8006; assay: Antibacterial activity, agar-dilution MIC, organism No. 11; settings: Salmonella, 8006; Organism No. 11, bouillon-agar; read-out: Minimum Inhibitory Concentration
Summary of the method: as §1

Enterobacter cloacae 963 = assay: Antibacterial activity, agar-dilution MIC, organism No. 24; settings: Enterobacter cloacae, 963; Organism No. 24, bouillon-agar; read-out: Minimum Inhibitory Concentration
Summary of the method: as §1

[11] = system: Salmonella typhimurium IID 971; assay: Antibacterial activity, agar-dilution MIC, organism No. 8; settings: Salmonella enterica; Organism No. 8, bouillon-agar; read-out: Minimum Inhibitory Concentration
Summary of the method: as §1

[12] = system: Escherichia coli NIHJ-JC-2; assay: Antibacterial activity, agar-dilution MIC, organism No. 5; settings: Escherichia coli, NIHJJC2; Organism No. 5, bouillon-agar; read-out: Minimum Inhibitory Concentration
Summary of the method: as §1

[13] = system: Pseudomonas aeruginosa PAO 1; assay: Antibacterial activity, agar-dilution MIC, organism No. 17; settings: Pseudomonas aeruginosa, PAO1; Organism No. 17, bouillon-agar; read-out: Minimum Inhibitory Concentration
Summary of the method: as §1

[14] = system: Enterobacter aerogenes ATCC 13048; assay: Antibacterial activity, agar-dilution MIC, organism No. 23; settings: Klebsiella aerogenes, ATCC13048; Organism No. 23, bouillon-agar; read-out: Minimum Inhibitory Concentration
Summary of the method: as §1

[15] = system: Streptococcus pyogenes IFO 3340; assay: Antibacterial activity, agar-dilution MIC, organism No. 26; settings: Streptococcus pyogenes, IFO3340; Organism No. 26, bouillon-agar; read-out: Minimum Inhibitory Concentration
Summary of the method: as §1

[16] = system: Staphylococcus aureus Terajima; assay: Antibacterial activity, agar-dilution MIC, organism No. 2; settings: Staphylococcus aureus; Organism No. 2, bouillon-agar; read-out: Minimum Inhibitory Concentration
Summary of the method: as §1

[17] = system: Escherichia coli K12 C600 IAM 1264; assay: Antibacterial activity, agar-dilution MIC, organism No. 6; settings: Escherichia coli, IAM1264; Organism No. 6, bouillon-agar; read-out: Minimum Inhibitory Concentration
Summary of the method: as §1

Proteus vulgaris HX-19 = assay: Antibacterial activity, agar-dilution MIC, organism No. 21; settings: Proteus vulgaris, HX19; Organism No. 21, bouillon-agar; read-out: Minimum Inhibitory Concentration
Summary of the method: as §1

[18] = system: Salmonella paratyphi-A 1015; assay: Antibacterial activity, agar-dilution MIC, organism No. 10; settings: Salmonella enterica, PARATYPHI, read-out: Minimum Inhibitory Concentration
Summary of the method: as §1

[19] = system: Proteus mirabilis IFO 3849; assay: Antibacterial activity, agar-dilution MIC, organism No. 19; settings: Proteus mirabilis, IFO3849; Organism No. 19, bouillon-agar; read-out: Minimum Inhibitory Concentration
Summary of the method: as §1

[20] = system: Serratia marcescens IAM 1184; assay: Antibacterial activity, agar-dilution MIC, organism No. 13; settings: Serratia marcescens, IAM1184; Organism No. 13, bouillon-agar; read-out: Minimum Inhibitory Concentration
Text: Agar-dilution method was used for determination of the antibacterial activity and antifungal activity while using bouillon-agar culture medium, and the minimum inhibitory concentration of the specimen was expressed by μg/ml of the culture medium.

[21] = system: Aspergillus niger IFO 6342; assay: Antifungal activity, agar-dilution MIC, organism No. 30; settings: Aspergillus niger, IFO6342; Organism No. 30, bouillon-agar; read-out: Minimum Inhibitory Concentration
Summary of the method: as §1

[22] = system: Pseudomonas aeruginosa IFO 3445; assay: Antibacterial activity, agar-dilution MIC, organism No. 15; settings: Pseudomonas aeruginosa, IFO3445; Organism No. 15, bouillon-agar; read-out: Minimum Inhibitory Concentration
Summary of the method: as §1

[23] = system: Streptococcus pyogenes Cook; assay: Antibacterial activity, agar-dilution MIC, organism No. 4; settings: Streptococcus pyogenes; Organism No. 4, bouillon-agar; read-out: Minimum Inhibitory Concentration
Summary of the method: as §1

[24] = system: Klebsiella pneumoniae PCI-602; assay: Antibacterial activity, agar-dilution MIC, organism No. 7; settings: Klebsiella pneumoniae, PCI602; Organism No. 7, bouillon-agar; read-out: Minimum Inhibitory Concentration
Summary of the method: as §1

Compound	MIC [1]	MIC [2]	MIC [3]	MIC [4]	MIC [5]	MIC (Proteus vulgaris OX-19)	MIC [6]	MIC [7]	MIC (Salmonella typhi 901)	MIC [8]	MIC [9]	MIC [10]	MIC (Enterobacter cloacae 963)	MIC [11]	MIC [12]	MIC [13]	MIC [14]	MIC [15]	MIC [16]	MIC [17]	other results
[C-]#[N+]C12CC3(/C=C/C(=O)Nc4ccc(OCCC)cc4)OC3C1O2 (centres unmarked) [compound 73]	1.56 µg/mL (≈ 4.78 µM)	> 200 µg/mL	1.56 µg/mL (≈ 4.78 µM)	0.78 µg/mL (≈ 2.39 µM)	> 200 µg/mL	1.56 µg/mL (≈ 4.78 µM)	> 200 µg/mL	12.5 µg/mL (≈ 38.3 µM)	50 µg/mL (≈ 153 µM)	12.5 µg/mL (≈ 38.3 µM)	12.5 µg/mL (≈ 38.3 µM)	1.56 µg/mL (≈ 4.78 µM)	> 200 µg/mL	> 200 µg/mL	> 200 µg/mL	> 200 µg/mL	> 200 µg/mL	1.56 µg/mL (≈ 4.78 µM)	1.56 µg/mL (≈ 4.78 µM)	> 200 µg/mL	MIC (Proteus vulgaris HX-19): 0.78 µg/mL (≈ 2.39 µM); MIC [18]: 0.39 µg/mL (≈ 1.2 µM); MIC [19]: > 200 µg/mL; MIC [20]: > 200 µg/mL; MIC [21]: 12.5 µg/mL (≈ 38.3 µM); MIC [22]: > 200 µg/mL; MIC [23]: 100 µg/mL (≈ 306 µM); MIC [24]: 1.56 µg/mL (≈ 4.78 µM)
[C-]#[N+]C12CC3(/C=C/C(=O)Nc4ccc(OC(C)C)cc4)OC3C1O2 (centres unmarked) [compound 74]	1.56 µg/mL (≈ 4.78 µM)	200 µg/mL (≈ 613 µM)	12.5 µg/mL (≈ 38.3 µM)	0.78 µg/mL (≈ 2.39 µM)	> 200 µg/mL	1.56 µg/mL (≈ 4.78 µM)	100 µg/mL (≈ 306 µM)	6.25 µg/mL (≈ 19.2 µM)	12.5 µg/mL (≈ 38.3 µM)	6.25 µg/mL (≈ 19.2 µM)	12.5 µg/mL (≈ 38.3 µM)	3.13 µg/mL (≈ 9.59 µM)	> 200 µg/mL	> 200 µg/mL	> 200 µg/mL	> 200 µg/mL	> 200 µg/mL	3.13 µg/mL (≈ 9.59 µM)	6.25 µg/mL (≈ 19.2 µM)	> 200 µg/mL	MIC (Proteus vulgaris HX-19): 1.56 µg/mL (≈ 4.78 µM); MIC [18]: 1.56 µg/mL (≈ 4.78 µM); MIC [19]: > 200 µg/mL; MIC [20]: > 200 µg/mL; MIC [21]: 12.5 µg/mL (≈ 38.3 µM); MIC [22]: > 200 µg/mL; MIC [23]: 100 µg/mL (≈ 306 µM); MIC [24]: 1.56 µg/mL (≈ 4.78 µM)
